pIC50: −log10 of the molar value. Entries after “also recorded” stand apart in the source; their conditions may differ. Non-standard residues stand in square brackets, D forms with d. Residues, ends and D or L forms follow the SMILES beside them. ξ: configuration not given here. *: point of attachment. Cbz = O=C(OCc1ccccc1)*; Boc = CC(C)(C)OC(=O)*; ξNle = CCCCC(N)C(=O)O
Tests used:
[1] = target: γ-secretase (Homo sapiens, UniProt P49768); details: known IC50s of the inhibitors; read-out: IC50 (Abeta production); cited from earlier work
[2] = target: T1, PS1 precursor (Homo sapiens, UniProt P49768); test: Screening of γ-secretase inhibitors for PS1 precursor (holo) enhancement, western blot; format: cell-based; parameters: key to PS1 Precursor Enhancement: −: no effect; +: some effect; ++: moderate effect; +++: strong effect; details: ~50 uM inhibitor, 24 hrs; for PS1 Precursor Enhancement: SH-SY5Y neuroblastoma cells; for PS1 precursor (45 kDa band) level / stabilization: SY5Y neuroblastomas
T1 construct: The unprocessed or precursor form of PS1 is evidenced by a band at 45 kDa; endogenous in cells; host or cells: SH-SY5Y neuroblastoma cells
Experimental: Eighteen different γ-secretase inhibitors (purchased from Calbiochem) were tested for their ability to stabilize the PS1 precursor. SH-SY5Y neuroblastoma cells (1e6) incubated in 6-well plates were dosed with ˜50 uM γ-secretase inhibitor (10% FBS, DMEM) for 24 hrs. Cells were lysed in 2% CHAPS (TBS+protease inhibitors), cell debris pelleted at 18,000 g. Total protein in cell lysates were determined by BCA and 25 ug of protein/lane loaded onto 4-12% BisTris NuPage gels (Invitrogen) that were electrophoresed at 150V for 1 hr. Gels were transferred to PVDF (25V, 1 hr) and probed with anti-N-term PS1 (1:1000, Abcam cat. #ab10281). Western blots were developed using chemiluminescence and imaged using an Alpha Innotech FluorChem Q imaging system. Γ-secretase inhibitors tested: PME, XX, XVII, X, IX, IV, II, I-40, VII, V, III, II-40, I, XIII, XVI, XIX, XXI, CW.
The mature form of PS1 (where PS1 is processed to form a heterodimer) is evidenced by a prominent band at 27 kDa (developed using an antibody specific for the N-terminus of PS1) and is present in all samples. […] The increase in PS1 precursor protein level is interpreted as stabilization of the PS1 precursor and the stabilization appears to be mechanistically distinct from the inhibition of γ-secretase activity since there is no correlation between γ-secretase inhibitory potency (IC50 for Abeta production) and levels of stabilized PS1 precursor (see Table 1).

[3] = target: T2, mature PS1 (Homo sapiens, UniProt P49768); test: Mature PS1 dose response to four day treatment, western blot; format: cell-based; details: SY5Y neuroblastomas, four days of treatment, different concentrations
T2 construct: The mature form of PS1 (where PS1 is processed to form a heterodimer) is evidenced by a prominent band at 27 kDa; The mature form of presenlin is a heterodimer consisting of a ˜30 kDa NH2-terminal fragment (NTF) and a ˜20 kDa C-terminal fragment; endogenous in cells; host or cells: SH-SY5Y neuroblastoma cells
Experimental: SY5Y neuroblastomas grown in 6-well plates were dosed with different concentrations of γ-secretase inhibitors IX, XXI, and XX for four days, after which the cells were harvested by centrifugation (5000 g, 5 min.), lysed in RIPA buffer (TBS, 1% TX100, 0.5% taurodeoxycholate, 0.1% SDS plus protease inhibitors) and cleared of unsolubilized cell debris by centrifugation (15,000 g, 10 min., 4 C). Total protein was determined by BCA and equivalent protein loads of 50 ug/lane were separated on a 4-12% BisTris NuPage polyacrylamide gel (Invitrogen) then transferred to PVDF (25V, 1 hr in NuPage Transfer buffer). Western blots were probed with anti-N-term PS1 (1:1000, Abcam cat. #ab10281) followed by development using an anti-rabbit alkaline phosphatase conjugate, chemiluminescence detection and imaged using an Alpha Innotech FluorChem Q imaging system. After PS1 bands were quantified using the FluorChem Q band analysis software, blots were stripped and re-probed for actin (rabbit anti-actin, Pierce Chemicals).

[4] = system: PS1 precursor; test: Time course of PS1 precursor enhancement, western blot; format: cell-based, human; details: 10 uM, lymphoblast cell line AG07622
Experimental: Lymphoblast cell line AG07622 was dosed in 6-well plates with 10 uM of γ-secretase inhibitor X (in 10% FBS, DMEM) for 0 hrs, 2 hrs, 4 hrs, 6 hrs and 24 hrs. Control samples containing 1% DMSO were ran in parallel to the drug treated lymphoblasts. After the specified dosing time, cells were harvested by centrifugation (5000 g, 5 min.), lysed in 2% CHAPS/TBS (with protease inhibitors) and cleared of unsolubilized cell debris by centrifugation (15,000 g, 10 min., 4 C). Total protein was determined by BCA and equivalent proteins loads of 40 ug/lane were separated on a 4-12% BisTris NuPage polyacrylamide gel (Invitrogen) then transferred to PVDF (25V, 1 hr in NuPage Transfer buffer). Western blots were probed with anti-N-term. PS1 (1:1000, Abcam cat. #ab 10281) followed by development using an anti-rabbit alkaline phosphatase conjugate, chemiluminescence detection and imaged using an Alpha Innotech FluorChem Q imaging system.

[5] = target: T3, γ-secretase complex (Homo sapiens, UniProt P49768); test: Native gel of intact γ-secretase complex from treated fibroblasts; format: cell-based; details: wildtype fibroblasts CRL2076, 0-100 uM for 24 hrs, 6 hr wash out
T3 construct: The mature form of presenlin is a heterodimer consisting of a ˜30 kDa NH2-terminal fragment (NTF) and a ˜20 kDa C-terminal fragment; host or cells: wild-type fibroblasts CRL2076
Experimental: Wildtype fibroblasts (CRL2076) in a 6-well plate were treated with different doses of γ-secretase inhibitor IV (0, 3.1, 6.25, 12.5, 25 and 100 uM) for 24 hrs, followed by a 6 hr wash out period. Fibroblasts were harvested by gentle scraping in TBS, collected by centrifugation (5000 g, 5 min) and lysed in 1% digitonin (50 mM NaCl, 50 mM Hepes, pH 7.3) overnight at 4° C. Nonsolubilized cell debris was removed by centrifugation (15,000 g, 10 min.). Total protein was determined by BCA and equivalent proteins loads of 40 ug/lane were separated on a 4-16% native BisTris polyacrylamide gel using Blue-Native cathode and anode buffer system (Invitrogen). The native gel was transferred to PVDF (25V, 1 hr in NuPage Transfer buffer), blocked with Blotto (Pierce) and probed with anti-N-term PS1 (1:1000, Abcam cat. #ab10281) followed by development using an anti-rabbit alkaline phosphatase conjugate, chemiluminescence detection and imaged using an Alpha Innotech FluorChem Q imaging system.

Compound | PS1 Precursor Enhancement [2] | PS1 precursor (45 kDa band) level / stabilization [2] | mature PS1 protein levels [3] | pIC50 [1] | time at which increase in PS1 precursor is first evident [4] [h] | time at which maximum PS1 precursor level is reached [4] [h] | band intensity / level of the γ-secretase complex [5]
C[C@H](NC(=O)Cc1cc(F)cc(F)c1)C(=O)N[C@@H]1C(=O)N(C)c2ccccc2-c2ccccc21 [XX, (S)-2-(2-(3,5-difluoro-phenyl)acetamido)-N-((S)-5-methyl-6-oxo-6,7-dihydro-5H-dibenzo[b,d]azepin-7-yl)propanamide] | +++ | significantly increased; also recorded: do stabilize the PS1 precursor | dose dependent increase | 8.77 |  |  | 
O=C(O)c1cc(Oc2ccc([N+](=O)[O-])cc2)cc(Oc2ccc([N+](=O)[O-])cc2)c1 [CW] | − |  |  |  |  |  | 
CC(C)[C@H](NC(=O)c1ccc2ccccc2c1)C(=O)N[C@H](C=O)Cc1ccccc1 [IV, N-((S)-3-methyl-1-oxo-1-(((S)-1-oxo-3-phenylpropan-2-yl)amino)butan-2-yl)-2-naphthamide] | ++ | significantly increased |  | 5.59 |  |  | increased levels of the γ-secretase complex; also recorded: increases as a function of increasing concentration
CCCCC(C=O)NC(=O)[C@H](CC(C)C)NC(=O)[C@@H](CC(C)C)NC(=O)OCc1ccccc1 (stereo partly drawn) [I, benzyl ((2R)-4-methyl-1-(((2S)-4-methyl-1-oxo-1-((1-oxohexan-2-yl)amino)pentan-2-yl)amino)-1-oxopentan-2-yl)carbamate] (Cbz-[dL]-Leu-[ξNle]-aldehyde) | + | significantly increased |  |  |  |  | 
(11S)-19-tert- butyl 1-methyl 2,14-di- sec-butyl-9,9-difluoro- 5,17-diisopropyl-11- methyl-4,8,10,15,18- pentaoxo-3,6,7,12,13,16- hexaazanon | + | significantly increased |  | 4.89 |  |  | 
CCC(C)C(NC(=O)C=Cc1cc(OC)cc(OC)c1)C(=O)NC(C=O)CC(C)C (stereo not drawn) [I-40, trans-3,5-DMC-Ile-Leu-CHO] | − | significantly increased |  | 4.82 |  |  | 
(2R,3R)- 3-(3,4-difluorophenyl)- 2-(4-fluorophenyl)-4- hydroxy-N-((S)-2-oxo-5- phenyl-2,3-dihydro-1H- benzo[e][1,4]diazepin-3- yl)butanamide [XIX] | + | significantly increased |  | 10.22 |  |  | 
CC(C)C(C=O)NC(=O)C(NC(=O)CNC(=O)OC(C)(C)C)C(C)C (stereo not drawn) [II-40] (Boc-Gly-Val-Val-aldehyde; configuration not given here) | − |  |  |  |  |  | 
CC(C)C[C@@H](C=O)NC(=O)[C@@H](CC(C)C)NC(=O)OCc1ccccc1 [III] | − |  |  | 4.46 |  |  | 

Now from value to compound, other results behind:

PS1 Precursor Enhancement [2] | PS1 precursor (45 kDa band) level / stabilization [2] | mature PS1 protein levels [3] | Compound | pIC50 [1] | time at which increase in PS1 precursor is first evident [4] [h] | time at which maximum PS1 precursor level is reached [4] [h] | band intensity / level of the γ-secretase complex [5]
+++ | significantly increased |  | CC(C)C[C@H](NC(=O)[C@H](Cc1ccccc1)C[C@@H](O)[C@H](Cc1ccccc1)NC(=O)OC(C)(C)C)C(=O)N[C@@H](Cc1ccccc1)C(N)=O [X, tert-butyl ((2S,3R,5R)-6-(((S)-1-(((S)-1-amino-1-oxo-3-phenylpropan-2-yl)amino)-4-methyl-1-oxopentan-2-yl)amino)-5-benzyl-3-hydroxy-6-oxo-1-phenylhexan-2-yl)carbamate] | 7.77 | 2 | 24 | 
− |  |  | CC(C)CC(C=O)NC(=O)C(CC(C)C)NC(=O)OC1CC(C)CCC1C(C)C (stereo not drawn) [VII] | 5.64 |  |  | 
− |  |  | COC(=O)[C@@H](NC(=O)[C@H](C)NC(=O)Cc1cc(F)cc(F)c1)c1ccccc1 [XVI] | 8.00 |  |  | 
+ | significantly increased |  | CCC(C)C(NC(=O)[C@H](Cc1ccc(O)cc1)NC(=O)OCc1ccccc1)C(=O)N[C@H](C=O)CC(C)C (stereo partly drawn) [XIII, benzyl ((2S)-3-(4-hydroxyphenyl)-1-((3-methyl-1-(((S)-4-methyl-1-oxopentan-2-yl)amino)-1-oxopentan-2-yl)amino)-1-oxopropan-2-yl)carbamate] | 8.10 |  |  | 
− | does not stabilize the PS1 precursor | dose dependent increase | C[C@H](NC(=O)Cc1cc(F)cc(F)c1)C(=O)N[C@H](C(=O)OC(C)(C)C)c1ccccc1 [IX, (S)-tert-butyl 2-((S)-2-(2-(3,5-difluorophenyl)acetamido)propanamido)-2-phenylacetate] |  |  |  | 
− |  |  | CC(C)CC(NC(=O)OCc1ccccc1)C(=O)NC(C=O)Cc1ccccc1 (stereo not drawn) [V] (Cbz-Leu-Phe-aldehyde; configuration not given here) | 5.30 |  |  | 
− |  |  | COC(=O)[C@@H](NC(=O)[C@H](CC(C)C)NC(=O)N(Cc1ccccc1)C[C@@H](O)[C@H](Cc1ccccc1)NC(=O)OC(C)(C)C)C(C)C [XVII, (6S,7R,12S,15S)-methyl 6,9-dibenzyl-7-hydroxy-12-isobutyl-15-isopropyl-2,2-dimethyl-4,10,13-trioxo-3-oxa-5,9,11,14-tetraazahexadecan-16-oate] | 6.52 |  |  | 
